Experimental data as given in patent US8338423B2, “Compositions for the treatment of hyperphenylalaninemia” (Universidad de Zaragoza, priority 2007, dated 2012).

Target: T1, wt-PAH (Homo sapiens, UniProt P00439)
T1 construct: made in house; host or cells: E. coli
T1 sequence (P00439 1-452): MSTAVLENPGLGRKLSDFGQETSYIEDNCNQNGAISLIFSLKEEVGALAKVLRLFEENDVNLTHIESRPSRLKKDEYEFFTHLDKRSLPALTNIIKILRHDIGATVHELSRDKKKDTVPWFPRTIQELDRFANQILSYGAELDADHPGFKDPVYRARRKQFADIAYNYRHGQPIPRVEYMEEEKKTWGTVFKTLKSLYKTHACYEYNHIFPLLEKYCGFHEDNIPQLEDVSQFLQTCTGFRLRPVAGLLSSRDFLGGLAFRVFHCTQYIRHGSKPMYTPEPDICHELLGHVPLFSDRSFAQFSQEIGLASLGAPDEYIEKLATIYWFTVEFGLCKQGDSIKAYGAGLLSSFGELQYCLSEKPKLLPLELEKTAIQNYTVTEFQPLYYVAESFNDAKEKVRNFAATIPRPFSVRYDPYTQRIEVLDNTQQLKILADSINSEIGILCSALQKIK
Assay: Enzyme kinetic analysis of recombinant PAH activity
Format: biochemical
Conditions: for reduction in Vmax (activity dependence on L-Phe) / inhibition of PAH activity / increase of Km for BH4 / S0.5, L-Phe / Vmax, L-Phe / h (Hill coefficient), L-Phe / Vmax, BH4, No preincubation / Vmax, BH4, Preincubation: 100 μM compound; for reduction in Vmax (activity dependence on L-Phe): 75 μM BH4; for inhibition of PAH activity: 100 μM L-Phe, 10 μM BH4, L-Phe preincubation (FIG. 3A); for increase of Km for BH4: preincubation with 1 mM L-Phe; for S0.5, L-Phe / Vmax, L-Phe / h (Hill coefficient), L-Phe: 75 μM BH4, L-Phe 0-1 mM, preincubated; for S0.5, L-Phe / Vmax, L-Phe / h (Hill coefficient), L-Phe / Vmax, BH4, No preincubation / Vmax, BH4, Preincubation: mean ± S.E.; for Vmax, BH4, No preincubation / Vmax, BH4, Preincubation: 1 mM L-Phe, BH4 0-200 μM; for Vmax, BH4, No preincubation: not preincubated; for Vmax, BH4, Preincubation: preincubated with L-Phe; for Ki: using standard equations for competitive inhibition, read-out: Kl vs BH4 (competitive inhibition)
Description: PAH activity was measured at 25° C. for 1 min essentially as described (BjØrgo E, et al., Eur. J. Biochem. 1988; 257(1):1-10). Tetrameric hPAH (1-2 μg) was incubated in 20 mM Hepes 0.2 M NaCl pH 7.0, containing catalase (0.04 mg/ml), 0.1-1 mM L-Phe, DMSO 2.5% and 0-100 μM of each compound. After 4 min incubation at 25° C., ferrous ammonium sulphate (100 μM) was added, and the reaction was triggered after 1 min by adding BH4 (10-200 μM) in the presence of 5 mM DTT. In some experiments, the preincubation step with L-Phe was omitted and L-Phe was added together with BH4 to analyze the L-Phe induced activation of the enzyme. To determine the kinetic parameters for BH4 and L-Phe, BH4 was used at 0-200 μM (at fixed 1 mM L-Phe) and L-Phe at 0-1 mM (BH4 was fixed at 75 μM). L-Tyr formed was quantified by HPLC and fluorimetric detection (DØskeland A P, et al., J. Biol. Chem. 1984; 259:11242-11248). The saturation curves were fitted to hyperbolic (for BH4) or sigmoidal (for L-Phe) kinetic models by using Sigma Plot v.9.0 (SPSS Inc).
PAH enzyme kinetics have been analyzed in the presence of the four hit compounds in order to know if ligand binding interferes with PAH catalytic activity. Activity measurements were performed in the presence of high (100 μM) concentrations of ligands with or without preincubating PAH enzyme with L-Phe prior to activity assays. L-Phe preincubation of human PAH lead to activation of the enzyme and manifestation of positive cooperativity by the substrate, and it is thought to play an important regulatory role on PAH activity in vivo (Pey A L, et al., In: Blau N. ed. Advances in PKU and BH4, 2006). […] It is worth noting that under these conditions, ligand concentration equalled L-Phe concentration (100 μM), and 10-fold exceeded BH4 concentration (10 μM). Except for compound 13, this inhibition was dramatically weakened when the preincubation step with L-Phe (100 μM) was ommited. Moreover, when L-Phe and BH4 are used at saturating concentrations, inhibition was abolished (FIG. 3B), indicating a rather weak and reversible inhibitory effect exerted by these ligands.
Further kinetic analyses were performed to determine if the weak inhibition was due to competition for the substrate and/or cofactor binding sites. Activity dependence on BH4 and L-Phe concentration was measured in the presence of 100 μM compound concentration, and the experimental data fitted to hyperbolic (BH4) or sigmoidal (L-Phe) kinetic models. The fitting parameters obtained from these experiments are compiled in Table 2. […] These values are substantially higher than those obtained for likely physiological inhibitors of PAH, such as 7S-BH4 and BH2 (Kl˜2-5 μM and ˜17 μM, respectively).

| Compound | reduction in Vmax (activity dependence on L-Phe) | inhibition of PAH activity | increase of Km for BH4 [%] | S0.5, L-Phe [µM] | Vmax, L-Phe [μmol L-Tyr/min·mg] | h (Hill coefficient), L-Phe | Vmax, BH4, No preincubation [μmol L-Tyr/min·mg] | Vmax, BH4, Preincubation [μmol L-Tyr/min·mg] | Ki [µM] |
| --- | --- | --- | --- | --- | --- | --- | --- | --- | --- |
| Cc1onc(-c2ccccc2)c1-c1n[nH]c(N)c1C#N [Compound 5, 5-amino-3-(5-methyl-3-phenyl-4-isoxazolyl)-1H-pyrazole-4-carbonitrile] | about 13% | specially significant | ~20 | 118 ± 5 | 3.02 ± 0.08 | 2.6 ± 0.3 | 0.80 ± 0.05 | 3.52 ± 0.41 | ~500 |
| Cn1cnc([N+](=O)[O-])c1N1CCN(C(c2ccccc2)c2ccccc2)CC1 [Compound 6, 1-benzhydryl-4-(1-methyl-4-nitro-1H-imidazol-5-yl)piperazine] | – | – | – | 156 ± 10 | 3.77 ± 0.13 | 1.8 ± 0.1 | 0.81 ± 0.05 | 2.96 ± 0.10 | – |
| Nc1c(-c2ccc3ccccc3n2)c2ccc([N+](=O)[O-])cc2c(=O)n1Cc1ccccc1 [Compound 11, 3-amino-2-benzyl-7-nitro-4-(2-quinolyl)-1,2-dihydroisoquinolin-1-one] | – | – | – | 138 ± 8 | 3.57 ± 0.11 | 1.9 ± 0.2 | 0.86 ± 0.03 | 2.87 ± 0.14 | – |
| Cc1ccnc(-n2c(=S)[nH]c3sc(C)c(C)c3c2=O)c1 [Compound 13, 5,6-dimethyl-3-(4-methyl-2-pyridinyl)-2-thioxo-2,3 dihydrothieno[2,3-d]pyrimidin-4(1H)-one] | ~30% | specially significant | ~50 | 131 ± 11 | 2.43 ± 0.10 | 1.6 ± 0.2 | 0.85 ± 0.07 | 3.11 ± 0.16 | ~200 |
